Active and inactive are the calls of the source. The rule behind the calls is not given here.
What was measured:
[1] = system: A549; assay: Cytotoxicity against human A549 cells assessed as inhibition of cell growth; format: functional, cell-based
[2] = system: Candida albicans; format: functional, 0304103; settings: time 48 hrs
Description: Synergistic antifungal activity against azole-resistant Candida albicans 0304103 assessed as fractional inhibitory concentration incubated for 48 hrs by CLSI based checkerboard microdilution assay

[3] = system: Candida albicans; format: functional, 0304103; settings: time 48 hrs; remark: listed apart in the source
Description: Synergistic antifungal activity against azole-resistant Candida albicans 0304103 assessed as fractional inhibitory concentration in presence of fluconazole incubated for 48 hrs by CLSI based checkerboard microdilution assay

[4] = system: HEL; assay: Cytotoxicity against human HEL cells assessed as inhibition of cell growth; format: functional, cell-based
[5] = system: Candida albicans; assay: microbe, parasite or virus in culture; format: functional; settings: 0304103, time 48 hrs
Description: Antifungal activity against azole-resistant Candida albicans 0304103 assessed as fungal growth inhibition incubated for 48 hrs by CLSI based checkerboard microdilution assay

[6] = system: Candida albicans; format: functional, 0304103; settings: time 48 hrs; remark: listed apart in the source
Description: Synergistic antifungal activity against azole-resistant Candida albicans 0304103 assessed as fractional inhibitory concentration index in presence of fluconazole incubated for 48 hrs by CLSI based checkerboard microdilution assay

[7] = Inhibition of fungal HSP90 incubated for 6 hrs in presence of FITC-Geldanamycin by fluorescence polarization analysis; design: species or system Fungi
[8] = Toxicity in ICR mouse infected with azole-resistant Candida albicans 0304103 assessed as reduction in survival time at 10 mg/kg, ip administered once daily for 5 days; format: organism-based; settings: in vivo, 120 h, time 5 day
[9] = Cytotoxicity against human HaCaT cells assessed as inhibition of cell growth; format: toxicity, cell-based
[10] = system: Candida albicans; assay: Upregulation of ERG11 expression in azole-resistant Candida albicans 0304103 at 8 ug/ml by RT-PCR analysis; format: functional; settings: dose 8.0 µg/ml
[11] = system: Candida albicans; assay: Downregulation of CDR1 expression in azole-resistant Candida albicans 0304103 at 8 ug/ml in presence of fluconazole by RT-PCR analysis; format: functional; settings: dose 8.0 µg/ml
[12] = system: Candida albicans; assay: Antifungal activity against azole-resistant Candida albicans 0304103 infected in ICR mouse assessed as reduction in fungal burden in kidney by measuring neat and dense arrangement of cells at 10 mg/kg, ip administered once daily for 5 days in presence of fluconazole by Periodic acid-Schiff staining based analysis; format: functional, organism-based; settings: time 5.0 day
[13] = system: Candida albicans; assay: Inhibition of biofilm formation in azole-resistant Candida albicans 0304103 at 64 ug/ml incubated for 24 hrs by XTT reduction assay; format: functional, organism-based; settings: dose 64.0 µg/ml
[14] = target: Histone deacetylase; format: protein assay, Homo sapiens
[15] = target: Heat shock protein HSP90 (Homo sapiens, UniProt P07900+P08238); assay: Inhibition of human HSP90; format: protein assay
[16] = system: Candida albicans; assay: Inhibition of biofilm formation in azole-resistant Candida albicans 0304103 assessed as downregulation of BCR1 expression at 64 ug/ml by RT-PCR analysis; format: functional, organism-based; settings: dose 64.0 µg/ml
[17] = system: Candida albicans; assay: Inhibition of biofilm formation in azole-resistant Candida albicans 0304103 assessed as downregulation of EAP1 expression at 64 ug/ml by RT-PCR analysis; format: functional, organism-based; settings: dose 64.0 µg/ml
[18] = system: Candida albicans; assay: Antifungal activity against azole-resistant Candida albicans 0304103 infected in ICR mouse assessed as reduction in fungal burden in kidney by measuring smooth kidney tissue at 10 mg/kg, ip administered once daily for 5 days in presence of fluconazole by Periodic acid-Schiff staining based analysis; format: functional, organism-based; settings: time 5.0 day
[19] = system: Candida albicans; assay: Inhibition of biofilm formation in azole-resistant Candida albicans 0304103 assessed as downregulation of […] expression at 64 ug/ml by RT-PCR analysis; format: functional, organism-based; settings: dose 64.0 µg/ml
[20] = system: Candida albicans; assay: Antifungal activity against azole-resistant Candida albicans 0304103 infected in ICR mouse assessed as assessed as reduction in fungal burden in kidney by measuring reduction in fungal invasion at 10 mg/kg, ip administered once daily for 5 days in presence of fluconazole by Periodic acid-Schiff staining based analysis; format: functional, organism-based; settings: time 5.0 day
[21] = system: Candida albicans; assay: Downregulation of ERG11 expression in azole-resistant Candida albicans 0304103 at 8 ug/ml in presence of fluconazole by RT-PCR analysis; format: functional; settings: dose 8.0 µg/ml
[22] = system: Candida albicans; assay: Inhibition of biofilm formation in azole-resistant Candida albicans 0304103 assessed as downregulation of HWP1 expression at 64 ug/ml by RT-PCR analysis; format: functional, organism-based; settings: dose 64.0 µg/ml
[23] = system: Candida albicans; assay: Antifungal activity against azole-resistant Candida albicans 0304103 infected in ICR mouse assessed as reduction in fungal burden in kidney at 10 mg/kg, ip administered once daily for 5 days in presence of fluconazole; format: functional, organism-based; settings: time 5.0 day
[24] = Inhibition of fungal HDAC using Boc-Lys (acetyl)-AMC as substrate preincubated for 12 hrs followed by substrate addition and measured after 6 hrs by fluorescence-based analysis; design: species or system Fungi

CC(C)c1cc(-c2n[nH]c(=O)n2-c2ccc(C(=O)NCCCC(=O)NO)cc2)c(O)cc1O
IC50 [1]: 4.6 µM | FIC [2]: 16 µg/mL | FIC [3]: 1 µg/mL | IC50 [4]: 4.6 µM | MIC80 [5]: > 64 µg/mL | fractional inhibitory concentration index (FICI) [6]: 0.266

CC(C)c1cc(-c2n[nH]c(=O)n2-c2ccc3c(ccn3C)c2)c(O)cc1O [GANETESPIB]
IC50 [7]: 0.66 µM | Activity [8]: Toxic | FIC [2]: 0.5 µg/mL | IC50 [9]: < 0.015 µM | FIC [3]: 1 µg/mL | MIC80 [5]: > 64 µg/mL

CC(C)c1cc(-c2n[nH]c(=O)n2-c2ccc(C(=O)NCCCCC(=O)NO)cc2)c(O)cc1O
IC50 [1]: 4.6 µM | FIC [2]: 4 µg/mL | FIC [3]: 8 µg/mL | IC50 [4]: 4.6 µM | MIC80 [5]: > 64 µg/mL | fractional inhibitory concentration index (FICI) [6]: 0.188

CC(C)c1cc(-c2n[nH]c(=O)n2-c2cccc(NC(=O)CCCCCCC(=O)NO)c2)c(O)cc1O
IC50 [1]: 1.6 µM | FIC [2]: 8 µg/mL | FIC [3]: 2 µg/mL | IC50 [4]: 1.6 µM | MIC80 [5]: > 64 µg/mL | fractional inhibitory concentration index (FICI) [6]: 0.156

CC(C)c1cc(-c2n[nH]c(=O)n2-c2ccc(NC(=O)CCCC(=O)NO)cc2)c(O)cc1O
IC50 [1]: 0.024 µM | FIC [2]: 4 µg/mL | FIC [3]: 1 µg/mL | IC50 [4]: 0.024 µM | MIC80 [5]: > 64 µg/mL | fractional inhibitory concentration index (FICI) [6]: 0.078

OC(Cn1cncn1)(Cn1cncn1)c1ccc(F)cc1F
Activity [10]: Active

CC(C)c1cc(-c2n[nH]c(=O)n2-c2cccc(C(=O)NCCCCC(=O)NO)c2)c(O)cc1O
IC50 [1]: 4.6 µM | FIC [2]: 16 µg/mL | FIC [3]: 64 µg/mL | IC50 [4]: 4.6 µM | MIC80 [5]: > 64 µg/mL | fractional inhibitory concentration index (FICI) [6]: 1.25

CC(C)c1cc(-c2n[nH]c(=O)n2-c2ccc(C(=O)NCCCCCCCC(=O)NO)cc2)c(O)cc1O
IC50 [7]: 0.83 µM | Activity [11]: Active | Activity [12]: Active | inhibition [13]: Active | IC50 [1]: 4.6 µM | IC50 [14]: 3 µM | FIC [2]: 16 µg/mL | IC50 [15]: 19.52 µM | IC50 [9]: > 6.13 µM | FIC [3]: 1 µg/mL | IC50 [4]: 4.6 µM | inhibition [16]: Active | inhibition [17]: Active | MIC80 [5]: > 64 µg/mL | Activity [18]: Active | fractional inhibitory concentration index (FICI) [6]: 0.266 | inhibition [19]: Active | Activity [20]: Active | Activity [21]: Active | inhibition [22]: Active | Activity [23]: Active | IC50 [24]: 0.91 µM

O=C(CCCCCCC(=O)Nc1ccccc1)NO [VORINOSTAT]
Activity [8]: Toxic | IC50 [9]: 1.85 µM | IC50 [24]: 3.6 µM

CC(C)c1cc(-c2n[nH]c(=O)n2-c2cccc(C(=O)NCCCCCCC(=O)NO)c2)c(O)cc1O
inhibition [13]: Active | IC50 [1]: 4.6 µM | FIC [2]: 8 µg/mL | IC50 [9]: > 6.13 µM | FIC [3]: 1 µg/mL | IC50 [4]: 4.6 µM | inhibition [16]: Active | inhibition [17]: Active | MIC80 [5]: > 64 µg/mL | fractional inhibitory concentration index (FICI) [6]: 0.141 | inhibition [19]: Active | inhibition [22]: Active

CC(C)c1cc(-c2n[nH]c(=O)n2-c2cccc(C(=O)NCCCCCC(=O)NO)c2)c(O)cc1O
IC50 [1]: 4.6 µM | FIC [2]: 16 µg/mL | FIC [3]: 64 µg/mL | IC50 [4]: 4.6 µM | MIC80 [5]: > 64 µg/mL | fractional inhibitory concentration index (FICI) [6]: 1.25

CC(C)c1cc(-c2n[nH]c(=O)n2-c2cccc(NC(=O)CCCCCC(=O)NO)c2)c(O)cc1O
IC50 [1]: 1.6 µM | FIC [2]: 64 µg/mL | FIC [3]: 32 µg/mL | IC50 [4]: 1.6 µM | MIC80 [5]: > 64 µg/mL | fractional inhibitory concentration index (FICI) [6]: 1.5

CC(C)c1cc(-c2n[nH]c(=O)n2-c2cccc(C(=O)NCCCC(=O)NO)c2)c(O)cc1O
IC50 [1]: 4.6 µM | FIC [2]: 64 µg/mL | FIC [3]: 64 µg/mL | IC50 [4]: 4.6 µM | MIC80 [5]: > 64 µg/mL | fractional inhibitory concentration index (FICI) [6]: 2

CC(C)c1cc(-c2n[nH]c(=O)n2-c2cccc(NC(=O)CCCCC(=O)NO)c2)c(O)cc1O
IC50 [1]: 1.6 µM | FIC [2]: 64 µg/mL | FIC [3]: 32 µg/mL | IC50 [4]: 1.6 µM | MIC80 [5]: > 64 µg/mL | fractional inhibitory concentration index (FICI) [6]: 1.5

CC(C)c1cc(-c2n[nH]c(=O)n2-c2ccc(NC(=O)CCCCC(=O)NO)cc2)c(O)cc1O
IC50 [1]: 0.024 µM | FIC [2]: 16 µg/mL | FIC [3]: 16 µg/mL | IC50 [4]: 0.024 µM | MIC80 [5]: > 64 µg/mL | fractional inhibitory concentration index (FICI) [6]: 0.5

CC(C)c1cc(-c2n[nH]c(=O)n2-c2ccc(NC(=O)CCCCCCC(=O)NO)cc2)c(O)cc1O
IC50 [1]: 0.024 µM | FIC [2]: 8 µg/mL | FIC [3]: 4 µg/mL | IC50 [4]: 0.024 µM | MIC80 [5]: > 64 µg/mL | fractional inhibitory concentration index (FICI) [6]: 0.188

CC(C)c1cc(-c2n[nH]c(=O)n2-c2ccc(NC(=O)CCCCCC(=O)NO)cc2)c(O)cc1O
IC50 [1]: 0.024 µM | FIC [2]: 8 µg/mL | FIC [3]: 8 µg/mL | IC50 [4]: 0.024 µM | MIC80 [5]: > 64 µg/mL | fractional inhibitory concentration index (FICI) [6]: 0.25

CC(C)c1cc(-c2n[nH]c(=O)n2-c2ccc(C(=O)NCCCCCC(=O)NO)cc2)c(O)cc1O
IC50 [1]: 4.6 µM | FIC [2]: >64 µg/mL | FIC [3]: >64 µg/mL | IC50 [4]: 4.6 µM | MIC80 [5]: > 64 µg/mL | fractional inhibitory concentration index (FICI) [6]: 2

CNC(=O)CCCCCCCNC(=O)c1cccc(-n2c(-c3cc(C(C)C)c(O)cc3O)n[nH]c2=O)c1
IC50 [1]: 4.6 µM | FIC [2]: 8 µg/mL | IC50 [9]: > 6.13 µM | FIC [3]: 2 µg/mL | IC50 [4]: 4.6 µM | MIC80 [5]: > 64 µg/mL | fractional inhibitory concentration index (FICI) [6]: 0.156

CC(C)c1cc(-c2n[nH]c(=O)n2-c2ccc(C(=O)NCCCCCCC(=O)NO)cc2)c(O)cc1O
IC50 [1]: 4.6 µM | FIC [2]: 16 µg/mL | FIC [3]: 1 µg/mL | IC50 [4]: 4.6 µM | MIC80 [5]: > 64 µg/mL | fractional inhibitory concentration index (FICI) [6]: 0.266
